Data as given in publication PMC12362783 (Advanced Science, 2025).

Tests used:
[1] = Preliminary safety evaluation in xenografted mice (body weight, animal loss, H&E staining of organs); type: in vivo
Method: MDA‐MB‐468 cells (1 × 10^7) were implanted in the right flanks subcutaneously in female nude mice. When the implanted tumor grew to a volume of 110 mm^3, the animals were randomly divided into four groups, each group containing four animals. […] Tumor size and body weights were measured twice a week. On day 28, the mice were euthanized, tumors were harvested and weighed, and vital organs (heart, liver, spleen, lung, and kidney) were collected. Processed samples were saved for further safety evaluation.
The tumor sample and vital organs were immersed in 4% paraformaldehyde for 4 h and transferred to 70% ethanol. Individual lobes of the sample were placed in processing cassettes, dehydrated through a serial alcohol gradient, and embedded in paraffin wax blocks. Thick tissue sections (5 µm) were dewaxed in xylene, rehydrated through decreasing concentrations of ethanol, washed in PBS, and stained with H&E. After staining, the sections were dehydrated through increasing concentrations of ethanol and xylene. Images were acquired on a fluorescent inverted microscope (Nikon DS‐Ri1).

PARP5A = PARP5A (Homo sapiens, UniProt O95271); test: PARP family selectivity; type: biochemical
Sequence of PARP5A (O95271 whole entry, species assumed): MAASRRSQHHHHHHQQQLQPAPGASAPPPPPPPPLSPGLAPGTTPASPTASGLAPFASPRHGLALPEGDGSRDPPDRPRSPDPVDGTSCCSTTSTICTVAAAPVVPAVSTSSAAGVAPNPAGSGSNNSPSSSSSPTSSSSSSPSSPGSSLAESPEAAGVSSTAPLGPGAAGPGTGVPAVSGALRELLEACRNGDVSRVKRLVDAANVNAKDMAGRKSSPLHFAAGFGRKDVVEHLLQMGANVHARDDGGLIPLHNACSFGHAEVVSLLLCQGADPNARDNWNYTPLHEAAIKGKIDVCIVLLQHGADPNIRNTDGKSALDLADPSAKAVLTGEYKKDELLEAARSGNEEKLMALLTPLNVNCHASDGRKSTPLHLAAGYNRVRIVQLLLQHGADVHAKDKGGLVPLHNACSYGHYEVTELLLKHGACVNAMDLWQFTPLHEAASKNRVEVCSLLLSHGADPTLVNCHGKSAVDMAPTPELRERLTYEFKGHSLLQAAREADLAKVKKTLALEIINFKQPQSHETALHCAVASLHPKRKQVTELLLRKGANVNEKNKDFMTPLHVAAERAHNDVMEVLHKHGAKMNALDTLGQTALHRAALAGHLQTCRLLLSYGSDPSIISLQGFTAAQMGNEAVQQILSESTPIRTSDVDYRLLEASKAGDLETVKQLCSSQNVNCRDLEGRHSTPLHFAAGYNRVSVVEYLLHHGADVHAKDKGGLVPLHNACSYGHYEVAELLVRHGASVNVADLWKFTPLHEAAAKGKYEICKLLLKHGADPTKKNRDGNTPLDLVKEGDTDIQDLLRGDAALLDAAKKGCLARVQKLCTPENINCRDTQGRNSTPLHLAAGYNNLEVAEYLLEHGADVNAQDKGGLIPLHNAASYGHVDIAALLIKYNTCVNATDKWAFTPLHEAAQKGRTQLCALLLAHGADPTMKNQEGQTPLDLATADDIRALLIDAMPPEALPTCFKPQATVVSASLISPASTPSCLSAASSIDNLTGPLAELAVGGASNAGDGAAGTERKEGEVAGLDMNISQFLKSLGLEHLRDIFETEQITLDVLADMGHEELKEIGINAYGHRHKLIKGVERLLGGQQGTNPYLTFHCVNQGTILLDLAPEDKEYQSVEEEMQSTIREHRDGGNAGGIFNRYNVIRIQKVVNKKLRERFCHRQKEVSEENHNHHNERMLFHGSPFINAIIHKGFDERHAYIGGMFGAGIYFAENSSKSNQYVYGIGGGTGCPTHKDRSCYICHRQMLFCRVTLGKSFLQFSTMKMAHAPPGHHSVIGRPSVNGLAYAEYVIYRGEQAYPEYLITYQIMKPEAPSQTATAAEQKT
Method: (§1) The PARP activity assay was performed by ChemPartner (Shanghai, China). Each well was precoated with histone (final conc.: 100 ng mL^−1) diluted in PBS buffer (contains 10 mmol L^−1 NaH2PO4 and 150 mmol L^−1 NaCl, pH 7.4) by incubation at 4 °C overnight. […] The reaction was initiated by the addition of 10 µL of PARP (final conc.: 0.007 nM/well) at room temperature for 60 min. Add 20 µL of anti‐Poly/Mono‐ADP Ribose Rabbit mAb. Incubate for 1.5 h at room temperature and wash the plate three times using PBST buffer. Add 20 µL of diluted (1:2000) anti‐rabbit IgG, HRP‐linked Antibody. Incubate for 1 h at room temperature and wash the plate three times using PBST buffer. Add 25 µL Femto‐ECL Substrate A and Femto‐ECL Substrate B (1:1) mix. Immediately read chemiluminescence on Envision (Revvity, USA).

PARP5B = PARP5B (Homo sapiens, UniProt Q9H2K2); test: PARP family selectivity; type: biochemical
Sequence of PARP5B (Q9H2K2 whole entry, species assumed): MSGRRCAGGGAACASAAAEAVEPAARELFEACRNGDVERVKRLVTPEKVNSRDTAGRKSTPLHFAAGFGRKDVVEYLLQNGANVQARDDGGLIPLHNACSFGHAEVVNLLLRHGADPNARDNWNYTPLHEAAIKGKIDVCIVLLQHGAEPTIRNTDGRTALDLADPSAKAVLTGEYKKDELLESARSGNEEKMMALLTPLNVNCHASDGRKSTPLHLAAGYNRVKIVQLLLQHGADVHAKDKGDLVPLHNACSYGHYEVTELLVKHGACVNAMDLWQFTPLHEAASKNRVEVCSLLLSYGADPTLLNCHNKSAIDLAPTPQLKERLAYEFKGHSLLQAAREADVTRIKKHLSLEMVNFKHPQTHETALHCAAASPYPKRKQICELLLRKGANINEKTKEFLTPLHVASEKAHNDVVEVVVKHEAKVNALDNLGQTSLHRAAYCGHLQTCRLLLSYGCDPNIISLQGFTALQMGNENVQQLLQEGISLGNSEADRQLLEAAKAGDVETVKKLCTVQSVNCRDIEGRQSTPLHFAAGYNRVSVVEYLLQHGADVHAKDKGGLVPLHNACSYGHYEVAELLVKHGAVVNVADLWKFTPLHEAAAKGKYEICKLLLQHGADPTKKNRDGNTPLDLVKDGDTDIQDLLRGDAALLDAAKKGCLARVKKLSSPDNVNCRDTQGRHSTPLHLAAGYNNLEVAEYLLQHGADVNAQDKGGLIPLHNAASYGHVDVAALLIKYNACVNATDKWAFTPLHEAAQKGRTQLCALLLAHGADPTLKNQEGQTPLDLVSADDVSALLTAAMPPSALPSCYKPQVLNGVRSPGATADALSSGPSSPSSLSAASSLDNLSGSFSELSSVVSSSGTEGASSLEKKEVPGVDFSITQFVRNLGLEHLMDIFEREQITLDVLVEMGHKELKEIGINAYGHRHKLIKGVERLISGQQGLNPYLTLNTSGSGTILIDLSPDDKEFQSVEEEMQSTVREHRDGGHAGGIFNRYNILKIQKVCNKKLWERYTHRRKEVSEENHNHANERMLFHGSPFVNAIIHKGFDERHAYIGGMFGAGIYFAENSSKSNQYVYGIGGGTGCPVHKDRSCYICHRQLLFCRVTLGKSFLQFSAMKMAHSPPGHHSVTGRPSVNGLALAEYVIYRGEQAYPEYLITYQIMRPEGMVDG
Method: as §1

MDA‐MB‐231 cells [2] = test: Immunofluorescence of γH2AX foci; type: cell-based; details: 48 h, vs Olaparib, AZD6738, and their combination
Method: (§2) Cells were fixed for 30 min in 4% paraformaldehyde and permeabilized for 30 min in 1% Triton X‐100 at 4 °C. After three rinses with PBS, cells were blocked for 30 min with 5% BSA and incubated with γH2AX antibody (1/1000 dilution, CST#9718) in 5% BSA overnight at 4 °C, after which they were rinsed three times with PBS and incubated with the secondary antibodies at room temperature for 1 h. Then, cells were washed with PBS three times, and the nucleus was stained with DAPI and fixed. Finally, images were visualized with the microscope and analyzed.

MDA‐MB‐468 cells [3] = test: Immunofluorescence of γH2AX foci; type: cell-based; details: 48 h, vs Olaparib, AZD6738, and their combination
Method: as §2

MDA‐MB‐231 cells [4] = test: Transwell invasion assay (Matrigel); type: cell-based; details: 24 h, vs AZD6738 and Olaparib alone or their combination
Method: (§3) For the wound‐healing assay, MDA‐MB‐231 cells were seeded into 6‐well plates and grown to 80% confluence. A scratch was made in the cell monolayer using a 20 µL pipette tip, and the cells were washed with PBS to remove floating cells and debris. The cells were then incubated in serum‐free medium. Cells are divided into control and drug treatment Cells in the scratched area were imaged at 0 and 48 h using microscopy, and the distance traveled by cells at the leading edge of the wound at each time point was measured. To assess cell migration, a transwell assay was performed. […] Following 24 h of incubation, the filters were fixed in 4% paraformaldehyde, stained with 0.1% crystal violet, and then imaged and counted under a microscope to determine the number of invading cells. To assess cell invasion, the transwell plate was coated with a layer of Matrigel, and the rest procedure is similar to what has been described above.

MDA‐MB‐468 cells [5] = test: Transwell invasion assay (Matrigel); type: cell-based; details: 24 h, vs AZD6738 and Olaparib alone or their combination
Method: as §3

MDA‐MB‐468 xenograft = test: MDA‐MB‐468 xenografted mice model, antitumor efficacy; type: in vivo; details: 28 days
Method: Anticancer efficacy experiment in MDA‐MB‐468 Xenografted mice model was performed by Shanghai Medicilon Inc. All animal experiments in this study were conducted in strict accordance with national animal welfare regulations and were approved by the institutional animal ethics committee (Approval number: IACUC‐HZN2401P; Approval Date: 2024‐10‐18). MDA‐MB‐468 cells (1 × 10^7) were implanted in the right flanks subcutaneously in female nude mice. When the implanted tumor grew to a volume of 110 mm^3, the animals were randomly divided into four groups, each group containing four animals. Compound B8 was intraperitoneally (IP) administered at two different doses, bis in die (BID) for 28 days: low dose: 25 mg k^−1g and high dose 50 mg k^−1g. […] Tumor size and body weights were measured twice a week. On day 28, the mice were euthanized, tumors were harvested and weighed, and vital organs (heart, liver, spleen, lung, and kidney) were collected. Processed samples were saved for further safety evaluation.

ATR = biological target: T1, ATR (Homo sapiens, UniProt Q13535); test: ATR kinase inhibition, Mobility Shift Assay; type: biochemical; details: n = 3, mean ± SD
T1 construct: purchased Eurofins 14-953
Method: The in vitro ATR kinase inhibitory activities were determined by ChemPartner Co., Ltd. (Shanghai, China) using the Mobility Shift Assay. The tested compound was dissolved with DMSO and diluted to 1000/3 × of the final desired highest inhibitor concentration in the reaction. […] The assay wells were incubated at 28 °C for 4 h.

PARP2 = PARP2 (Homo sapiens, UniProt Q9UGN5); test: PARP family selectivity; type: biochemical
Sequence of PARP2 (Q9UGN5 whole entry, species assumed): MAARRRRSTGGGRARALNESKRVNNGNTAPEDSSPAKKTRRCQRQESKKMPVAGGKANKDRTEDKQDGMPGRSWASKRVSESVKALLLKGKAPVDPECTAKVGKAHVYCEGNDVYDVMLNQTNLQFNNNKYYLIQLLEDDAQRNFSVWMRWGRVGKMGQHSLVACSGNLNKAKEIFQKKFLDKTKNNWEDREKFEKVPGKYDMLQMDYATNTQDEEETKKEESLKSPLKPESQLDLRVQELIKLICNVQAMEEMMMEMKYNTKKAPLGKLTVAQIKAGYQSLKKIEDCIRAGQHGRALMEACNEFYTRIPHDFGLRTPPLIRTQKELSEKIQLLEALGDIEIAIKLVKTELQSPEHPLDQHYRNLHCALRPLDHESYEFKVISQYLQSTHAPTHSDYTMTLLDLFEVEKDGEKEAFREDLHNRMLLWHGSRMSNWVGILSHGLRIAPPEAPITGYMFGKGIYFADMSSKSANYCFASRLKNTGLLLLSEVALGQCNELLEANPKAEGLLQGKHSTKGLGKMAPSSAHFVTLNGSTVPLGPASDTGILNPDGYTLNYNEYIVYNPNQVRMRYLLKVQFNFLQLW
Method: as §1, with “Add 20 µL of diluted (1:2000) anti‐rabbit IgG, HRP‐linked Antibody.” left out

PARP7 = PARP7 (Homo sapiens, UniProt Q7Z3E1); test: PARP family selectivity; type: biochemical
Sequence of PARP7 (Q7Z3E1 whole entry, species assumed): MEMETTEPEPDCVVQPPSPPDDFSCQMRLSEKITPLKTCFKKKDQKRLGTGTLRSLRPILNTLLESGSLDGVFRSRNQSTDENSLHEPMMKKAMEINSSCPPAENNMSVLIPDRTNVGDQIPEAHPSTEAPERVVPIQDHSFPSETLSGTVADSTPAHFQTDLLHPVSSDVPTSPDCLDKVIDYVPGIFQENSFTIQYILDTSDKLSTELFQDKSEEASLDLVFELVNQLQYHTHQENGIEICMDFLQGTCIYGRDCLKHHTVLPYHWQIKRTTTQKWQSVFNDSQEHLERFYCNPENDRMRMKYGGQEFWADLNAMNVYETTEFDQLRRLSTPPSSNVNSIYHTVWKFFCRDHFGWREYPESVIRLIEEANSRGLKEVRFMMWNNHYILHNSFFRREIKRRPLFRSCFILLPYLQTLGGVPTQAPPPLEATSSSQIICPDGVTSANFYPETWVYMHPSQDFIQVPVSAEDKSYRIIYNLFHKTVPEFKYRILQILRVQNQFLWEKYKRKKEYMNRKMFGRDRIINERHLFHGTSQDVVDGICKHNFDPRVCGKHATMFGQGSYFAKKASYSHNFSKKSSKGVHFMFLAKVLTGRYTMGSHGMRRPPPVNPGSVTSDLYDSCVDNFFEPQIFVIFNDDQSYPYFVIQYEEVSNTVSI
Method: as §1, with “Add 20 µL of diluted (1:2000) anti‐rabbit IgG, HRP‐linked Antibody.” left out

Structure (SMILES): C[C@@H]1COCCN1c1cc(CNC(=O)c2ccc(C(=O)N3CCN(C(=O)c4cc(Cc5n[nH]c(=O)c6ccccc56)ccc4F)CC3)cc2)nc(-c2ccnc3[nH]ccc23)n1 [Compound B8, (R)‐4‐(4‐(2‐fluoro‐5‐((4‐oxo‐3,4‐dihydrophthalazin‐1‐yl)methyl)benzoyl)piperazine‐1‐carbonyl)‐N‐((6‐(3‐methylmorpholino)‐2‐(1H‐pyrrolo[2,3‐b]pyridin‐4‐yl)pyrimidin‐4‐yl)methyl) benzamide]
- effect on body weight ([1]; B8 25 and 50 mg/kg I.P., 28 days, nude mice): no significant effect on body weight
- H&E staining of heart, liver, spleen, lungs, and kidneys ([1]; after 28 days of continuous administration): did not cause significant changes in organ structure or cellular morphology
- IC50 (PARP5A): 116 nM
- PARP5A (selectivity over PARP1, fold) (PARP5A; fold of PARP1 selectivity over PARP5A): 305 fold
- IC50 (PARP5B): 240 nM
- PARP5B (selectivity over PARP1, fold) (PARP5B; fold of PARP1 selectivity over PARP5B): 631.6 fold
- γH2AX foci formation (MDA‐MB‐231 cells [2]): significantly increased the formation of γH2AX foci
- γH2AX foci formation (MDA‐MB‐468 cells [3]): significantly increased the formation of γH2AX foci
- invasive capacity (MDA‐MB‐231 cells [4]): superior inhibitory effects on the invasive capacity
- invasive capacity (MDA‐MB‐468 cells [5]): superior inhibitory effects on the invasive capacity
- tumor growth inhibition rate (TGI) (MDA‐MB‐468 xenograft; B8 50 mg/kg I.P., female nude mice): 68.36%
- tumor weight and volume (MDA‐MB‐468 xenograft; B8‐treated mice): significantly lower than control groups
- IC50 (ATR): 17.3 ± 2.5 nM
- IC50 (PARP2): 5.1 nM
- PARP2 (selectivity over PARP1, fold) (PARP2; fold of PARP1 selectivity over PARP2): 13.4 fold
- IC50 (PARP7): 28.5 ± 1.3 nM
- PARP7 (selectivity over PARP1, fold) (PARP7; fold of PARP1 selectivity over PARP7): 75 fold
